Assay results published in publication PMC12344758, “Qsarna: An Online Tool for Smart Chemical Space Navigation in Drug Design” (Journal of Chemical Information and Modeling, 2025).

Tests used:
MAO-A = target: T1, MAO-A (Homo sapiens, UniProt P21397); test: Monoamine Oxidase-A Inhibitor Screening Kit (Merck, MAK295), fluorometric assay; type: biochemical; settings: for inhibition at 1 µM: concentration 1 uM; for inhibition at 10 µM: concentration 10 uM; for inhibition at 100 µM: concentration 100 uM; for IC50: secondary screen, 10 concentrations from 100 µM, duplicate
T1 construct: purchased Merck MAK295
T1 sequence (P21397 1-527): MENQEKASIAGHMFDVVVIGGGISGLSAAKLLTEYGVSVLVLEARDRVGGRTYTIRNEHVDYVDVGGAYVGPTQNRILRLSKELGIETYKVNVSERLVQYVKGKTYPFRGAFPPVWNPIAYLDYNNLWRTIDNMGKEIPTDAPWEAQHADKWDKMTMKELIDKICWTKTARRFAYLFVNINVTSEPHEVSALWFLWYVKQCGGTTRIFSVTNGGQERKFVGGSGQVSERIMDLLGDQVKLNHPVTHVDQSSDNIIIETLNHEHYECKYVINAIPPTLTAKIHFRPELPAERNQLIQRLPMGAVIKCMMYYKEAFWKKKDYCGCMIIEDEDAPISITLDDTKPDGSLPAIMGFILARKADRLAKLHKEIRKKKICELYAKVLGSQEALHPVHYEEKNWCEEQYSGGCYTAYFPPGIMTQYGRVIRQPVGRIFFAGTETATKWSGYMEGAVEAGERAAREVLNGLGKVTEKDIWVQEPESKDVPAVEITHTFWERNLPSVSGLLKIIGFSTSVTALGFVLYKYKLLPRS
Description: (§1) The experimental details for determining IC50 are presented in Supporting Information B.
(§2) To evaluate the IC50 of inhibitors, two fluorometric assays were used: the Monoamine Oxidase-A Inhibitor Screening Kit and the Monoamine Oxidase-B Inhibitor Screening Kit (Merck), according to the manufacturer’s protocol. The Echo dose-response software was used to prepare the plates. The compounds were tested at 10 concentrations, starting from 100 µM with a dilution factor of 3.16. All compounds were tested in duplicate in a final concentration of 1% of DMSO. Using a Mantis Liquid Dispenser (Formulatrix), 12.5 µL of protein was added to each tested compound (final concentration of 56 nM) and incubated for 60 minutes at 25°C (MAO-A) or 60 minutes at 37°C (MAO-B). Subsequently, the enzymatic reaction was initiated by adding 10 µL of substrate per well, followed by incubation for 60 minutes at 25°C (MAO-A) or 60 minutes at 37°C (MAO-B). The fluorescence intensity was measured using a plate reader (BioTek Synergy H1) with the following settings: excitation at 535 nm and emission at 587 nm. The data were normalized against low control (assay buffer […]
(§3) (1 picture or pasted object on this page, not shown here) […]
(§4) containing substrate) and high control (protein and substrate). The results were presented as a percentage of inhibition. […]

MAO-B = target: T2, MAO-B (Homo sapiens, UniProt P27338); test: Monoamine Oxidase-B Inhibitor Screening Kit (Merck, MAK296), fluorometric assay; type: biochemical; settings: for inhibition at 1 µM: concentration 1 uM; for inhibition at 10 µM: concentration 10 uM; for inhibition at 100 µM: concentration 100 uM; for IC50: secondary screen, 10 concentrations from 100 µM, duplicate
T2 construct: purchased Merck MAK296
T2 sequence (P27338 1-520): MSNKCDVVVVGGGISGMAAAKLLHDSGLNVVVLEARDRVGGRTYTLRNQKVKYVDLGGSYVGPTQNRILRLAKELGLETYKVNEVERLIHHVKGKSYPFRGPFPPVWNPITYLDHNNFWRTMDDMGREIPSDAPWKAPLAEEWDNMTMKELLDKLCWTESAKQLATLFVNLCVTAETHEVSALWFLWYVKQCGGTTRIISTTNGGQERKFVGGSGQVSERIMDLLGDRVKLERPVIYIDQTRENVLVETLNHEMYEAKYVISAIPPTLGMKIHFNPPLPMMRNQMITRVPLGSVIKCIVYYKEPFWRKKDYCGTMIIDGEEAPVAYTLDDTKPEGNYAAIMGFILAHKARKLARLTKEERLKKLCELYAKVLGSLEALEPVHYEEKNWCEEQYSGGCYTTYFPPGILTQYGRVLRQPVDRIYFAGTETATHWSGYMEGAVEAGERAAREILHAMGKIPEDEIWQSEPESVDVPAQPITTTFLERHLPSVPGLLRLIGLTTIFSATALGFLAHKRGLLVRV
Description: as §1, §2, §3, §4

Compound	inhibition at 1 µM (MAO-A) [%]	inhibition at 10 µM (MAO-A) [%]	inhibition at 100 µM (MAO-A) [%]	inhibition at 1 µM (MAO-B) [%]	inhibition at 10 µM (MAO-B) [%]	inhibition at 100 µM (MAO-B) [%]	IC50 (MAO-B) [nM]	IC50 (MAO-A) [µM]
Cc1csc(N/N=C/c2cc(Cl)ccc2Cl)n1 [MolPort-000-660-156]	10.8	24.3	46.7	3.45	0.34	39.5	–	–
O=C(Cn1c(=O)oc2ccccc21)Nc1nnc(SCc2ccccc2)s1 [MolPort-001-610-534]	0	0	15.7	0	0	0	–	–
Cc1nc(Nc2ncc3c(n2)CC(C)CC3=O)nc2ccccc12 (stereo not shown) [MolPort-000-510-622]	0	0	0	0	21	77.5	–	–
Cc1cc(=O)oc2cc(OCC(=O)N/N=C/c3ccccc3)ccc12 [MolPort-002-548-000]	0	0	0	0	0	0	–	–
Cc1c(-c2ccccc2)c(=O)oc2cc(OS(=O)(=O)c3ccc(Br)cc3)ccc12 [MolPort-000-479-802]	1.21	5.32	25.6	0	0	27.3	–	–
O=c1oc2cc(OCc3cccc(Cl)c3)ccc2c2c1CCC2 [MolPort-000-651-742]	4.35	0	0	91.3	98.4	98	9.76	–
Cc1cc(=O)oc2c(C)c(OCc3nnc(S)n3-c3ccc(Br)cc3)ccc12 [MolPort-002-847-536]	0	17.7	84.1	11.9	30.3	105	2320	31.9
CC(=O)NCC1CN(c2ccc(N3CCOCC3)c(F)c2)C(=O)O1 (stereo not shown) [MolPort-002-744-025]	4.19	0	43.5	59	81	97.3	460	–
Cc1nnc2c(Cc3ccccc3)nc3ccccc3n12 [Molport-002-872-748]	0	0	0	0	0	0	–	–
CC(=O)Nc1ccc2c(c1)-c1ccccc1C2=O [MolPort-001-824-101]	80.5	93.7	97.8	0	0	27.7	–	0.6
CCc1ccc(Nc2ncc3c(n2)CC(C)CC3=O)cc1 (stereo not shown) [MolPort-000-511-281]	0	0	0	40	83.7	96.4	66.1	–
Fc1ccc(-c2ccc3c(c2)[nH]c2ccncc23)cn1 [MolPort-044-831-708]	–	16.5	84.2	5.64	37.9	81.3	11900	23.6
Clc1ccc(/C=N/c2ccc3[nH]ncc3c2)c(Cl)c1 [MolPort-002-945-866]	7.2	26.1	7.8	0	32.5	84.4	32400	–
Cc1ccc(/C=N/Nc2nc3ccccc3nc2Cc2ccccc2)cc1 [Molport-002-863-179]	0	0	0	0	0	0	–	–
COc1ccc(C2SCC(=O)N2NC(=O)COc2ccc3c(C)cc(=O)oc3c2)cc1 (stereo not shown) [MolPort-002-546-020]	0	0	0	0	0	46.3	–	–
O=C(Nc1ccc(Cl)cc1)C1=Cc2ccccc2OC1 [MolPort-000-686-585]	0	0	0	0	51.7	91.2	10300	–
O=c1c(-c2ccccc2)coc2cc(O)cc(O)c12 [MolPort-003-665-835]	0	0	0	0	39.8	87.3	2830	–
COc1ccc(C2=NN(C(C)=O)C(c3ccccc3)C2)c(O)c1 (stereo not shown) [MolPort-000-773-355]	0	0	0	0	0	0	–	–
